Experimental data from US4536397A, “Antibiotics, neoviridogriseins, and their method of production” (Sanraku-Ocean Co., Ltd., priority 1983, dated 1985).
Converted amounts (≈) assume the structure as drawn. Starred links: 1 amine or outer side, 2 acyl side, 3 side chain; linkers in the order of their positions; H or OH if unused. Positions of bridges follow the written chain, without caps; N, C: chain ends. Non-standard residues stand in square brackets, D forms with d. Residues, ends and D or L forms follow the SMILES beside them. ξ: configuration not given here. *: point of attachment. NMeLeu(3ξ-Me) = CN[C@H](C(=O)O)C(C)C(C)C; X1 = CC(C)C(C)C(C(=O)[*:2])N(C)[*:1]; Picolinoyl(3-OH) = O=C(c1ncccc1O)*; NMePhg = CN[CH](C(=O)O)c1ccccc1; Thr(3ξ) = CC(O)[C@H](N)C(=O)O; Abu = CC[C@H](N)C(=O)O; Sar = CNCC(=O)O

Columns and labels:
[1] = system: Mycoplasma gallisepticum KP13; assay: MIC, dilution method, Mycoplasma; format: cell-based; parameters: unit not given beside the values; conditions: Table 4; PPLO enrichment broth (Eiken)
Description: (§1) The MIC were determined by the dilution method.
Medium (1): PPLO enrichment broth (Eiken, Japan)
(§2) was tested in vitro agains several Mycoplasma strains.

[2] = system: Bacillus subtilis ATCC 6633; assay: MIC, tube dilution method; format: cell-based; conditions: BHI broth
[3] = system: Staphylococcus aureus; assay: MIC, tube dilution method; format: cell-based; conditions: BHI broth
[4] = system: Diplococcus pneumoniac type 1; assay: MIC, tube dilution method; format: cell-based, Diplococcus pneumoniae; conditions: BHI broth containing 10% horse blood
[5] = system: Salmonella gallinanum; assay: MIC, tube dilution method; format: cell-based; conditions: BHI broth
[6] = system: Escherichia coli; assay: MIC, tube dilution method; format: cell-based; conditions: BHI broth
[7] = system: Streptococcus pyogenes; assay: MIC, tube dilution method; format: cell-based; conditions: BHI broth containing 10% horse blood
[8] = system: Staphylococcus aureus; assay: MIC repeated with a far lower dilution rate; format: cell-based; conditions: for MIC: far lower dilution rate, brain heart infusion broth
From the text: This MIC experiment was based on the two-fold dilutions. To differentiate neoviridogrisein II and viridogrisein in their antibiotic activity, the MIC determination was repeated with a far lower dilution rate.
Medium: brain heart infusion broth

[9] = system: Proteus vulgaris; assay: MIC, tube dilution method; format: cell-based; conditions: BHI broth
[10] = system: Staphylococcus sp.; assay: MIC, tube dilution method; format: cell-based; conditions: BHI broth
[11] = system: Sarcina lutea; assay: MIC, tube dilution method (incl. synergism with griseoviridin); format: cell-based
[12] = system: Mycoplasma pulmonis PG 22; assay: MIC, dilution method, Mycoplasma; format: cell-based; conditions: Table 4; PPLO broth (Chanock's medium; Difco)
Description: as §1
(§3) (2): PPLO broth (Chanock's medium; Difco)
as §2

[13] = system: Mycoplasma fermentans; assay: MIC, dilution method, Mycoplasma; format: cell-based; conditions: Table 4; PPLO broth (Chanock's medium; Difco)
Description: as §1, §3, §2

[14] = system: Mycoplasma agalactiae PG 2; assay: MIC, dilution method, Mycoplasma; format: cell-based; conditions: Table 4; PPLO broth (Chanock's medium; Difco)
Description: as §1, §3, §2

[15] = system: Pseudeomonas aeruginosa; assay: MIC, tube dilution method; format: cell-based; conditions: BHI broth
[16] = Solubility in solvents; format: physicochemical; conditions: for solubility in organic solvents: methanol, ethanol, propanols, n-butanol, dioxane, acetates, ketones, benzene, toluene, chlorinated solvents, DMF, DMSO
[17] = system: Candida albicans; assay: MIC, tube dilution method; format: cell-based; conditions: malt extract-yeast extract medium

CC(C)CC1NC(=O)C(NC(=O)c2ncccc2O)C(C)OC(=O)C(c2ccccc2)N(C)C(=O)C(C)NC(=O)C(C(C)C(C)C)N(C)C(=O)CN(C)C(=O)C2CCCN2C1=O (stereo not drawn) [NV II, neoviridogrisein II] ({Picolinoyl(3-OH)}-TLP[Sar][X1]A[NMePhg]; ester 1-C; configuration not given here)
MIC [1]: 0.025
MIC [2]: 0.4 µg/mL (≈ 0.463 µM)
MIC ([3]; strain 209P): 0.1 µg/mL (≈ 0.116 µM)
MIC ([3]; strain (BX-1633)(PC)r): 0.2 µg/mL (≈ 0.232 µM)
MIC ([3]; strain (EM)r): 0.4 µg/mL (≈ 0.463 µM)
MIC ([3]; strain (EM, CM, SM, PC, TC)r): 0.2 µg/mL (≈ 0.232 µM)
MIC ([3]; strain (EM, OM)r): 0.4 µg/mL (≈ 0.463 µM)
MIC ([3]; strain (PC, EM, NM)r): 0.4 µg/mL (≈ 0.463 µM)
MIC ([3]; strain (PC, TC, EM, LM)r 1): 6.25 µg/mL (≈ 7.24 µM)
MIC ([3]; strain (PC, TC, EM, LM)r 2): 6.25 µg/mL (≈ 7.24 µM)
MIC ([3]; strain (SM, STH)r): 0.2 µg/mL (≈ 0.232 µM)
MIC ([3]; strain (STH)r): 0.8 µg/mL (≈ 0.927 µM)
MIC ([3]; strain (TC, CP, PC)r): 0.2 µg/mL (≈ 0.232 µM)
MIC ([3]; strain (TC, EM, LM, CP)r): 6.25 µg/mL (≈ 7.24 µM)
MIC ([3]; strain Russell(PC)r): 0.2 µg/mL (≈ 0.232 µM)
MIC ([3]; strain Smith): 0.2 µg/mL (≈ 0.232 µM)
MIC [4]: 0.4 µg/mL (≈ 0.463 µM)
MIC [5]: > 25 µg/mL
MIC [6]: > 25 µg/mL
MIC [7]: 0.2 µg/mL (≈ 0.232 µM)
times more active than viridogrisein ([8]; from the MIC values of Table 2): 2-3 times
MIC ([8]; strain 209 P): 0.078 µg/mL (≈ 0.0904 µM)
MIC ([8]; strain (EM, CM, SM, PC, TC)r): 0.125 µg/mL (≈ 0.145 µM)
MIC ([8]; strain (TC, CP, PC)r): 0.094 µg/mL (≈ 0.109 µM)
MIC ([8]; strain Bx-1633(PC)r): 0.125 µg/mL (≈ 0.145 µM)
MIC ([8]; strain Russell(PC)r): 0.125 µg/mL (≈ 0.145 µM)
MIC ([8]; strain Smith): 0.125 µg/mL (≈ 0.145 µM)
MIC [9]: > 25 µg/mL
MIC ([10]; Staphylococcus sp. (PC)r): 0.4 µg/mL (≈ 0.463 µM)
MIC ([10]; Staphylococcus sp.): 0.8 µg/mL (≈ 0.927 µM)
MIC ([11]; Table 1, BHI broth): 0.4 µg/mL
MIC [12]: 0.78
MIC [13]: < 0.05
MIC [14]: 0.39
MIC [15]: > 25 µg/mL
solubility in organic solvents [16]: soluble
solubility in petroleum ether and hexane [16]: practically insoluble
solubility in water and ethyl ether [16]: hardly soluble
MIC [17]: > 25 µg/mL

CC[C@@H]1NC(=O)[C@H](C(C)C(C)C)N(C)C(=O)CN(C)C(=O)[C@H]2CCCN2C(=O)[C@@H](CC(C)C)NC(=O)[C@@H](NC(=O)c2ncccc2O)C(C)OC(=O)[C@H](c2ccccc2)N(C)C1=O (stereo partly drawn) [NV I, neoviridogrisein I] ({Picolinoyl(3-OH)}-[Thr(3ξ)][dL][dP][Sar][NMeLeu(3ξ-Me)][Abu][NMePhg]; ester 1-C)
MIC [2]: 0.4 µg/mL (≈ 0.456 µM)
MIC ([3]; strain 209P): 0.2 µg/mL (≈ 0.228 µM)
MIC ([3]; strain (BX-1633)(PC)r): 0.4 µg/mL (≈ 0.456 µM)
MIC ([3]; strain (EM)r): 0.4 µg/mL (≈ 0.456 µM)
MIC ([3]; strain (EM, CM, SM, PC, TC)r): 0.4 µg/mL (≈ 0.456 µM)
MIC ([3]; strain (EM, OM)r): 0.8 µg/mL (≈ 0.912 µM)
MIC ([3]; strain (PC, EM, NM)r): 0.8 µg/mL (≈ 0.912 µM)
MIC ([3]; strain (PC, TC, EM, LM)r 1): 6.25 µg/mL (≈ 7.13 µM)
MIC ([3]; strain (PC, TC, EM, LM)r 2): 6.25 µg/mL (≈ 7.13 µM)
MIC ([3]; strain (SM, STH)r): 0.4 µg/mL (≈ 0.456 µM)
MIC ([3]; strain (STH)r): 0.8 µg/mL (≈ 0.912 µM)
MIC ([3]; strain (TC, CP, PC)r): 0.2 µg/mL (≈ 0.228 µM)
MIC ([3]; strain (TC, EM, LM, CP)r): 6.25 µg/mL (≈ 7.13 µM)
MIC ([3]; strain Russell(PC)r): 0.2 µg/mL (≈ 0.228 µM)
MIC ([3]; strain Smith): 0.2 µg/mL (≈ 0.228 µM)
MIC [4]: 0.2 µg/mL (≈ 0.228 µM)
MIC [5]: > 25 µg/mL
MIC [6]: > 25 µg/mL
MIC [7]: 0.4 µg/mL (≈ 0.456 µM)
MIC [9]: > 25 µg/mL
MIC ([10]; Staphylococcus sp. (PC)r): 0.8 µg/mL (≈ 0.912 µM)
MIC ([10]; Staphylococcus sp.): 0.8 µg/mL (≈ 0.912 µM)
MIC ([11]; Table 1, BHI broth): 0.2 µg/mL
MIC [15]: > 25 µg/mL
solubility in organic solvents [16]: soluble
solubility in petroleum ether and hexane [16]: practically insoluble
solubility in water and ethyl ether [16]: hardly soluble
MIC [17]: > 25 µg/mL

C[C@@H]1C/C=C2\SC[C@@H](NC(=O)c3coc(n3)C[C@H](O)C[C@H](O)/C=C/C=C/CNC2=O)C(=O)O1 [GV, griseoviridin]
MIC [1]: 0.10
MIC ([11]; Table 3, varied ratios of neoviridogriseins mixture to griseoviridin, tube dilution, brain heart infusion broth): 0.250 µg/mL
MIC [12]: 6.25
MIC [13]: < 0.05
MIC [14]: 3.13
